Data: patent US7939288B2, “Method for differentiating between factor XIII deficiency states and fibrinogen deficiency states by means of thrombelastographic techniques” (CSL Behring GmbH, priority 2005, dated 2011)

Biological target: T1, factor XIII (Homo sapiens, UniProt P00488)
T1 construct: The test batch contained: 200 μl of plasma; from tissue; host or cells: standard human plasma
T1 sequence (P00488 39-732 limits assumed): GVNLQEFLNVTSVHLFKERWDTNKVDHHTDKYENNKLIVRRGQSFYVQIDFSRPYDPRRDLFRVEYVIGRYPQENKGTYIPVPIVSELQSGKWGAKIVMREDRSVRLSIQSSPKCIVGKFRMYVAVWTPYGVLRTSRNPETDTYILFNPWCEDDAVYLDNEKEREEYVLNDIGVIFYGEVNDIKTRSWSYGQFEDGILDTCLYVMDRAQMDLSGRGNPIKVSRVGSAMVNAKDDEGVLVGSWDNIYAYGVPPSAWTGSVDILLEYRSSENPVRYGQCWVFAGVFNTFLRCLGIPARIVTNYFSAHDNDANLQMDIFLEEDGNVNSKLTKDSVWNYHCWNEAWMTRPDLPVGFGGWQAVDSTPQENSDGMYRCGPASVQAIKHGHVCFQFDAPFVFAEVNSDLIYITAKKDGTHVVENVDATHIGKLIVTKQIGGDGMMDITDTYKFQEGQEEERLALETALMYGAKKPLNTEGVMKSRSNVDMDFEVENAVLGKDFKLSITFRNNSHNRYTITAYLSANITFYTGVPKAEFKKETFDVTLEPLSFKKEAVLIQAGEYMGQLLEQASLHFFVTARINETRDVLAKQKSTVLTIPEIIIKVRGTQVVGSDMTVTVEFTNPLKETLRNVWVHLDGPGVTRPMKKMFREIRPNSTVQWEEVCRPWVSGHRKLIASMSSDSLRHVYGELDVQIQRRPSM
Assay: TEG of standard human plasma with low molecular weight factor XIII inhibitors, clotting started by tissue factor reagent (Thromborel S)
Format: biochemical
Procedure: For the quantitative determination of the influence of factor XIII, standard human plasma with or without addition of low molecular weight factor XIII inhibitors was analysed by means of TEG. The clotting reaction was started or accelerated by addition of a tissue factor reagent. The test batch contained: 200 μl of plasma, 30 μl of NaCl soln (control) or inhibitor solution in different dilutions, 50 μl of tissue factor reagent. (Thromborel S, Dade Behring) and 20 μl of calcium chloride solution (200 mmol/l). The reagents were pipetted into the cup at 37° C. and the TEG measurement was started with Haemoscope apparatuses. Alternatively, the calcium chloride can also be already added to the tissue factor reagent and the reaction thus started. The measurement parameters of reaction time (R), alpha angle, maximum amplitude (MA) and time to achieve the maximum amplitude (MA) were determined and evaluated. […] The investigations carried out here with plasma are in principle also applicable to whole blood.

[1] = concentration in the test 0.033 μg/ml, Table 3
[2] = concentration in the test 0.10 μg/ml, Table 3
[3] = concentration in the test 0.33 μg/ml, Table 3
[4] = concentration in the test 1.00 μg/ml, Table 3
[5] = concentration in the test 3.33 μg/ml, Table 3
[6] = concentration in the test 1.07 μg/ml, standard human plasma
[7] = concentration in the test 1.071 μg/ml (so in the source), standard human plasma
[8] = concentration in the test 3.21 μg/ml, standard human plasma
[9] = concentration in the test 3.214 μg/ml (so in the source), standard human plasma
[10] = concentration in the test 10.7 μg/ml, standard human plasma
[11] = concentration in the test 32.1 μg/ml, standard human plasma
[12] = concentration in the test 107 μg/ml, standard human plasma
[13] = concentration in the test 321 μg/ml, standard human plasma
[14] = concentration in the test 0.32 μg/ml, standard human plasma
[15] = concentration in the test 107 μg/ml, standard human plasma, 107 µg/ml in the test
[16] = concentration in the test 321 μg/ml, standard human plasma, 321 µg/ml in the test
[17] = concentration in the test 536 μg/ml, standard human plasma, 536 µg/ml in the test

CC(=O)CSc1n(C)c(C)c(C)[n+]1C.[Cl-] [1,3,4,5-tetramethyl-2-[(2-oxopropyl)thio]imidazolium chloride]
MA (concentration in the test 0.033 μg/ml): 21.5 mm | Angle [1]: 79.6 ° | R [1]: 22.5 s | TMA [1]: 177.5 s | MA (concentration in the test 0.10 μg/ml): 18.5 mm | Angle [2]: 79.0 ° | R [2]: 22.5 s | TMA [2]: 140.0 s | MA (concentration in the test 0.33 μg/ml): 14.9 mm | Angle [3]: 77.0 ° | R [3]: 22.5 s | TMA [3]: 77.5 s | MA (concentration in the test 1.00 μg/ml): 13.1 mm | Angle [4]: 75.4 ° | R [4]: 22.5 s | TMA [4]: 77.5 s | MA (concentration in the test 3.33 μg/ml): 12.4 mm | Angle [5]: 74.0 ° | R [5]: 22.5 s | TMA [5]: 77.5 s

NCCc1c[nH]cn1 [Histamine]
Angle [6]: 73.4 ° | MA [6]: 17.8 mm | R [6]: 20.0 s | TMA [6]: 592.5 s | Angle [7]: 70.3 ° | MA [7]: 14.0 mm | R [7]: 15.0 s | TMA [7]: 492.5 s | Angle [8]: 75.0 ° | MA [8]: 17.9 mm | R [8]: 22.5 s | TMA [8]: 527.5 s | Angle [9]: 71.9 ° | MA [9]: 13.0 mm | R [9]: 25.0 s | TMA [9]: 182.5 s | Angle [10]: 74.8 ° | MA [10]: 19.2 mm | R [10]: 20.0 s | TMA [10]: 622.5 s | Angle [11]: 73.9 ° | MA [11]: 17.2 mm | R [11]: 22.0 s | TMA [11]: 472.5 s | Angle [12]: 73.5 ° | MA [12]: 16.9 mm | R [12]: 17.5 s | TMA [12]: 462.5 s | Angle [13]: 72.7 ° | MA [13]: 15.5 mm | R [13]: 20.0 s | TMA [13]: 430.0 s

CN(C)c1cccc2c(S(=O)(=O)NCCCCCN)cccc12 [Monodansylcadaverine]
Angle [14]: 74.0 ° | MA [14]: 18.1 mm | R [14]: 20.0 s | TMA [14]: 655.0 s | Angle [6]: 74.9 ° | MA [6]: 18.4 mm | R [6]: 22.5 s | TMA [6]: 610.0 s | Angle [8]: 74.7 ° | MA [8]: 19.1 mm | R [8]: 20.0 s | TMA [8]: 657.5 s | Angle [10]: 74.4 ° | MA [10]: 18.4 mm | R [10]: 25.0 s | TMA [10]: 560.0 s | Angle [11]: 74.4 ° | MA [11]: 17.3 mm | R [11]: 17.5 s | TMA [11]: 562.5 s | Angle [15]: 76.9 ° | MA [15]: 18.7 mm | R [15]: 32.5 s | TMA [15]: 237.5 s | Angle [16]: 71.0 ° | MA [16]: 15.1 mm | R [16]: 20.0 s | TMA [16]: 490.0 s | Angle [17]: 70.3 ° | MA [17]: 13.3 mm | R [17]: 27.5 s | TMA [17]: 370.0 s

NCCCCN [Putrescine]
Angle [6]: 73.1 ° | MA [6]: 17.2 mm | R [6]: 22.5 s | TMA [6]: 452.5 s | Angle [7]: 69.5 ° | MA [7]: 13.6 mm | R [7]: 25 s | TMA [7]: 405.0 s | Angle [8]: 73.7 ° | MA [8]: 15.9 mm | R [8]: 17.5 s | TMA [8]: 277.5 s | Angle [9]: 72.6 ° | MA [9]: 13.9 mm | R [9]: 32.5 s | TMA [9]: 327.5 s | Angle [10]: 73.4 ° | MA [10]: 18.7 mm | R [10]: 20.0 s | TMA [10]: 672.5 s | Angle [11]: 73.0 ° | MA [11]: 16.9 mm | R [11]: 25 s | TMA [11]: 585.0 s | Angle [12]: 73.0 ° | MA [12]: 16.5 mm | R [12]: 15 s | TMA [12]: 505.0 s | Angle [13]: 72.8 ° | MA [13]: 15.8 mm | R [13]: 20 s | TMA [13]: 400.0 s
